Data reported in patent publication US6833456B2, “Indolyl-urea derivatives of thienopyridines useful as antiangiogenic agents, and methods for their use” (Agouron Pharmaceuticals, Inc., priority 2002, dated 2004).
Where “and” joins values, the source holds several entries; their conditions need not be identical. Identical values can stand only once.

Key:
[1] = target: T1, unphosphorylated VEGF-R2Δ50 (FLVK) (Homo sapiens, UniProt P35968, DEL940-989/E990V); assay: VEGF-R2 coupled spectrophotometric assay, unphosphorylated construct (FLVK); format: biochemical; conditions: for inhibition at 0.05 µM: percent inhibition at 50 nM
T1 construct: VEGF-R2Δ50 contains residues 806-939 and 990-1171; made in house; host or cells: baculovirus/insect cell system
Method in brief: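 Human VEGF-R2Δ50 cytosolic kinase (residues 806-939/990-1171, E990V), baculovirus-expressed, unphosphorylated form. PK/LDH-coupled NADH oxidation at 340 nm with 20 mM poly(E4Y1), 3 mM ATP, 60 mM MgCl2, 2 mM MnCl2, 200 mM HEPES pH 7.5, 5-40 nM enzyme; Ki fitted by Morrison equation.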

KDR (VEGFR2) = target: T2, KDR (VEGFR2) (Homo sapiens, UniProt P35968); assay: KDR (VEGFR2) phosphorylation in PAE-KDR cells assay; format: cell-based; conditions: PAE cells overexpressing human KDR, VEGF stimulated; read-out: PAE KDR autophos IC50
T2 construct: expressed in transfected cells; host or cells: porcine aorta endothelial (PAE) cells
Method: This assay determines the ability of a test compound to inhibit the autophosphorylation of KDR in porcine aorta endothelial (PAE)-KDR cells. PAE cells that overexpress human KDR were used in this assay. The cells were cultured in Ham's F12 media supplemented with 10% fetal bovine serum (FBS) and 400 ug/mL G418. Thirty thousands cells were seeded into each well of a 96-well plate in 75 μL of growth media and allowed to attach for 6 hours at 37° C. Cells were then exposed to the starvation media (Ham's F12 media supplemented with 0.1% FBS) for 16 hours. After the starvation period was over, 10 μL of test agent in 5% DMSO in starvation media were added to the test wells and 10 μL of the vehicle (5% DMSO in starvation media) were added into the control wells. The final DMSO concentration in each well was 0.5%. Plates were incubated at 37° C. for 1 hour and the cells were then stimulated with 500 ng/ml VEGF (commercially available from R & D System) in the presence of 2 mM Na3VO4 for 8 minutes. The cells were washed once with 1 mm Na3VO4 in HBSS and lysed by adding 50 μL per well of lysis buffer. One hundred μL of dilution buffer were then added to each well and the diluted cell lysate was transferred to a 96-well goat ant-rabbit coated plate (commercially available from Pierce) which was pre-coated with Rabbit anti Human Anti-flk-1 C-20 antibody (commercially available from Santa Cruz). The plates were incubated at room temperature for 2 hours and washed seven times with 1% Tween 20 in PBS. HRP-PY20 (commercially available from Santa Cruz) was diluted and added to the plate for a 30-minute incubation. Plates were then washed again and TMB peroxidase substrate (commercially available from Kirkegaard & Perry) was added for a 10-minute incubation. One hundred μL of 0.09 N H2SO4 was added to each well of the 96-well plates to stop the reaction. Phosphorylation status was assessed by spectrophotometer reading at 450 nm. IC50 values were calculated by curve fitting using a four-parameter analysis.

PDGFRβ = target: T3, PDGFRβ (Homo sapiens, UniProt P09619); assay: PAE-PDGFRβ phosphorylation in PAE-PDGFRB cells assay; format: cell-based; conditions: PAE cells overexpressing human PDGFRβ, PDGF-BB stimulated; read-out: PAE PDGFR autophos IC50
T3 construct: expressed in transfected cells; host or cells: porcine aorta endothelial (PAE) cells
Method in brief: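 PAE cells overexpressing human PDGFRβ, serum-starved 16 h (0.1% FBS), compound 1 h at 37° C (0.5% DMSO), then 1 μg/mL PDGF-BB with 2 mM Na3VO4 for 8 min. Receptor captured by anti-PDGFRβ, phosphotyrosine detected by HRP-PY20/TMB at 450 nm; IC50 by four-parameter fit.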

HUVEC = assay: bFGF HUVEC proliferation; format: cell-based, human; conditions: Homo sapiens, HUVEC, bFGF stimulated HUVEC
[2] = test system: human umbilical vein endothelial cells (HUVEC); assay: HUVEC+VEGF proliferation assay; format: cell-based; conditions: Homo sapiens, HUVEC, 72 h, VEGF 6 ng/mL, MTT
Method in brief: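 HUVEC (passage 3-4), serum-starved 24 h in F12K + 1% FBS, were pre-treated with compound for 1 h (0.1% DMSO final). They were then stimulated with VEGF at 6 ng/mL final. Proliferation was measured after 72 h by MTT dye reduction (4 h), with absorbance read at 595 nm.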

T2 sequence (P35968 20-1356): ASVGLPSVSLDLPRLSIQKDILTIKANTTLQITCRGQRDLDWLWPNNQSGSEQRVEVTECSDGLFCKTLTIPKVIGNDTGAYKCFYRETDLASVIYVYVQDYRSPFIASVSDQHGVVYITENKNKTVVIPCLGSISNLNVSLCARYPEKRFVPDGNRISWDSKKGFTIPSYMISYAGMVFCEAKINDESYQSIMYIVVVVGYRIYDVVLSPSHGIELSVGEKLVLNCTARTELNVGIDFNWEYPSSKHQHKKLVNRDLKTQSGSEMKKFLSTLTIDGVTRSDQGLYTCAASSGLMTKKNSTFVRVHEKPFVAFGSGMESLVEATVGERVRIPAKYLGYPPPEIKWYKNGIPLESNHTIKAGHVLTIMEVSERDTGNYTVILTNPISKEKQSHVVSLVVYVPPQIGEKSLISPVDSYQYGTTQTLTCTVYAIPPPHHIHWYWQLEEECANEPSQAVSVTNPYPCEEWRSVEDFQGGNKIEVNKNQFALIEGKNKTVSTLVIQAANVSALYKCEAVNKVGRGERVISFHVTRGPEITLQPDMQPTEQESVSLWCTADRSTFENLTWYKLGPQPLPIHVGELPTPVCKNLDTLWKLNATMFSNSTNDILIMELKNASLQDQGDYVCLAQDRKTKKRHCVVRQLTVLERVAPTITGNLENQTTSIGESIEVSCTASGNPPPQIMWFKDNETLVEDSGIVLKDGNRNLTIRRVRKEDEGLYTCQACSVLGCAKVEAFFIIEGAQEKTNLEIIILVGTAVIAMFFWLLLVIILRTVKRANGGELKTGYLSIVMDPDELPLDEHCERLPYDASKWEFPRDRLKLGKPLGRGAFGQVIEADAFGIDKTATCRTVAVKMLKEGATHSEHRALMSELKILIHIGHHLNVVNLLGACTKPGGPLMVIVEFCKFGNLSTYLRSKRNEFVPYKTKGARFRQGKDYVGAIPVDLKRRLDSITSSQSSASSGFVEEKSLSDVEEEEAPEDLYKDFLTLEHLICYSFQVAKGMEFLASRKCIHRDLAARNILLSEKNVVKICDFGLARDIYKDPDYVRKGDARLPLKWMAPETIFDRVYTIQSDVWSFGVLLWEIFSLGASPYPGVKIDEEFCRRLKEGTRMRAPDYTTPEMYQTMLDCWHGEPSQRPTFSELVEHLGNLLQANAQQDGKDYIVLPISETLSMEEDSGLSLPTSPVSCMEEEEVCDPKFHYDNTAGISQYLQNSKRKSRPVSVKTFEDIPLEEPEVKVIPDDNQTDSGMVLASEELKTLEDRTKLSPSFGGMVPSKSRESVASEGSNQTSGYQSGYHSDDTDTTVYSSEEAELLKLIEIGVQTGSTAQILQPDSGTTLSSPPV
T1 sequence (P35968 with tags, fused parts or gaps DEL940-989/E990V limits assumed): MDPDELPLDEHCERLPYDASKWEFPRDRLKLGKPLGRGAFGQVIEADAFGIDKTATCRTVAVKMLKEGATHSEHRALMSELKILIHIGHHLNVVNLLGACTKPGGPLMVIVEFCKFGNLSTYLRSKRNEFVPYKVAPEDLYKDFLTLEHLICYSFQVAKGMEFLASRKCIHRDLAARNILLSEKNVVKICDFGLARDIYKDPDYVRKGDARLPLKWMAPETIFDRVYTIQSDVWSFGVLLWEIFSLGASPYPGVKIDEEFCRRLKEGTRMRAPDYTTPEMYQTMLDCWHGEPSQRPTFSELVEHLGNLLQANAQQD
T3 sequence (P09619 33-1106): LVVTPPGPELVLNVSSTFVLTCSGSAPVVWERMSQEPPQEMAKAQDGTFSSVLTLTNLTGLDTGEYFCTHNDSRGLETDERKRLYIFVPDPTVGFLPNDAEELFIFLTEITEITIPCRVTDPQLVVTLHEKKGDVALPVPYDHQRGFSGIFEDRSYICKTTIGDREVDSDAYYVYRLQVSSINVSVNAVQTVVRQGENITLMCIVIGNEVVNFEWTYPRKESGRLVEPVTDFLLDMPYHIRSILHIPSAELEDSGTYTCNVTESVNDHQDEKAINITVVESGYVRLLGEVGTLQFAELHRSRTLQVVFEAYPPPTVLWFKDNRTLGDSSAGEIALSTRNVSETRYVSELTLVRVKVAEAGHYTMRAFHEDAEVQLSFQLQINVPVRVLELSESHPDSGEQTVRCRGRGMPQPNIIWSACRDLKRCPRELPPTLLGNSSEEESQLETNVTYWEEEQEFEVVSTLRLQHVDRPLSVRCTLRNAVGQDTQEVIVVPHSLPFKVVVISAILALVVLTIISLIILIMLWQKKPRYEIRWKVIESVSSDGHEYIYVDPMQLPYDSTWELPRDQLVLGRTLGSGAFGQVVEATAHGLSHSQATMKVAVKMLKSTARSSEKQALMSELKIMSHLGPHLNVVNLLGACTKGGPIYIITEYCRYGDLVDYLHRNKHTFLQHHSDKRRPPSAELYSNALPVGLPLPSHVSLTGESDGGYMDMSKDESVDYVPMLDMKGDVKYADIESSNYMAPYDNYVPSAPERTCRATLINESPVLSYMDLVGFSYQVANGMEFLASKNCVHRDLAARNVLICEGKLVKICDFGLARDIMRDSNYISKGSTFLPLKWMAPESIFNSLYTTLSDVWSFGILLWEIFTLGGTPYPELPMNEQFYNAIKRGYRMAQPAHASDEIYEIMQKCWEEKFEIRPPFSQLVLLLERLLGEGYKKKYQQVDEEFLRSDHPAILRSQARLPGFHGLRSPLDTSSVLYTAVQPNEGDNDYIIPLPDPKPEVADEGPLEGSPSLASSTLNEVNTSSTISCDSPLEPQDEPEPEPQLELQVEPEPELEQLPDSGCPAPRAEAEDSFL

SMILES | Ki [1] [nM] | inhibition at 0.05 µM [1] [%] | IC50 (KDR (VEGFR2)) [nM] | IC50 (PDGFRβ) | IC50 (HUVEC) [nM] | IC50 [2] [nM]
CNC(=O)n1c(C)cc2cc(Oc3ccnc4cc(C(=O)N5CC[C@@H](N(C)C)C5)sc34)ccc21 [Example 8g, 5-[(2-{[(3R)-3-(Dimethylamino)pyrrolidin-1-yl]carbonyl}thieno[3,2-b]pyridin-7-yl)oxy]-N,2-dimethyl-1H-indole-1-carboxamide] | 0.643 | 99 | – | 15.4 nM | 9 | 0.15
Cc1cc2cc(Oc3ccnc4cc(C(=O)N5CC[C@@H](N(C)C)C5)sc34)ccc2n1C(=O)NCCO [Example 8l, 5-[(2-{[(3R)-3-(Dimethylamino)pyrrolidin-1-yl]carbonyl}thieno[3,2-b]pyridin-7-yl)oxy]-N-(2-hydroxyethyl)-2-methyl-1H-indole-1-carboxamide] | 0.88 | 88 | – | 18.8 nM | 63 | 1.5
CCCNC(=O)n1c(C)cc2cc(Oc3ccnc4cc(C(=O)N5CC[C@H](OC)C5)sc34)ccc21 [Example 9d, 5-[2-(3S-Methoxy-pyrrolidine-1-carbonyl)-thieno[3,2-b]pyridin-7-yloxy]-2-methyl-indole-1-carboxylic acid propylamide] | 0.228 | 99 | 1.47 | 25 nM | 143 | –
CNC(=O)n1ccc2cc(Oc3ccnc4cc(-c5nc(C(C)(C)O)cs5)sc34)ccc21 [Example 31, 5-{2-[4-(1-Hydroxy-1-methyl-ethyl)-thiazol-2-yl]-thieno[3,2-b]pyridin-7-yloxy}-indole-1-carboxylic acid methylamide] | 0.462 | 97 | – | 8.1 nM and 6.3 nM | 101 | 0.16

More lines, in order of falling Ki [1], values ahead:

Ki [1] [nM] | inhibition at 0.05 µM [1] [%] | IC50 (KDR (VEGFR2)) [nM] | IC50 (PDGFRβ) | SMILES | IC50 (HUVEC) [nM] | IC50 [2] [nM]
4.7 | 64 | 1.2 | – | CCC(=O)n1c(C)cc2cc(Oc3ccnc4cc(C(=O)N5CC[C@H](OC)C5)sc34)ccc21 [Example 10a, 2-{[(3S)-3-Methoxypyrrolidin-1-yl]carbonyl}-7-[(2-methyl-1-propionyl-1H-indol-5-yl)oxy]thieno[3,2-b]pyridine] | 21 | 0.79
0.504 | 98 | 0.5 | 13.1 nM | COC[C@@H]1CCCN1C(=O)c1cc2nccc(Oc3ccc4c(cc(C)n4C(=O)NC4CC4)c3F)c2s1 [Example 5b] | 13.6 | –
0.162 | 97 | – | 18 nM and 20 nM | C#CCNC(=O)n1c(C)cc2cc(Oc3ccnc4cc(C(=O)N5CC[C@H](O)C5)sc34)ccc21 [Example 9j, 5-[2-(3S-Hydroxy-pyrrolidine-1-carbonyl)-thieno[3,2-b]pyridin-7-yloxy]-2-methyl-indole-1-carboxylic acid prop-2-ynylamide] | 81 | 0.29
0.143 | 98 | – | 13 nM | C#CCNC(=O)n1c(C)cc2cc(Oc3ccnc4cc(C(=O)N5CCC[C@@H]5COC)sc34)ccc21 [Example 8p, 5-[2-(2R-Methoxymethyl-pyrrolidine-1-carbonyl)-thieno[3,2-b]pyridin-7-yloxy]-2-methyl-indole-1-carboxylic acid prop-2-ynylamide] | 197 | 0.137
0.1 | 96 | 0.569 | 10 nM | CO[C@@H]1CCN(C(=O)c2cc3nccc(Oc4ccc5c(c4)cc(C)n5C(=O)NC4CC4)c3s2)C1 [Example 4k, 5-[2-(3R-Methoxy-pyrrolidine-1-carbonyl)-thieno[3,2-b]pyridin-7-yloxy]-2-methyl-indole-1-carboxylic acid cyclopropylamide] | 5.8 | –
